Results published in PubChem BioAssay (NCI).
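Five concentrations, 48 hours, 96-well plates. The concentration for 50% growth inhibition is given as GI50. Definition used: TGI = concentration required for complete inhibition of growth.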

Key:
Experiment in all cases: growth of human tumour cells (NCI), 48 h
[1] = test system: MOLT-4 leukemia
[2] = test system: RXF 393 renal
[3] = test system: OVCAR-8 ovarian
[4] = test system: LOX IMVI melanoma
[5] = test system: HOP-92 NSCLC
[6] = test system: SF-295 CNS
[7] = test system: UACC-257 melanoma
[8] = test system: KM12 colon
[9] = test system: EKVX NSCLC
[10] = test system: SK-OV-3 ovarian

Compound	TGI [1] [µM]	TGI [2] [µM]	TGI [3] [µM]	TGI [4] [µM]	TGI [5] [µM]	TGI [6] [µM]	TGI [7] [µM]	TGI [8] [µM]	TGI [9] [µM]	TGI [10] [µM]	GI50 [1] [µM]	GI50 [2] [µM]	GI50 [3] [µM]	GI50 [4] [µM]	GI50 [5] [µM]	GI50 [6] [µM]	GI50 [7] [µM]	GI50 [8] [µM]	GI50 [9] [µM]	GI50 [10] [µM]
COc1cc(NS(=O)(=O)c2ccc(C)cc2)c2nccnc2c1	52.3	64.7	> 100	> 100	> 100	> 100	> 100	> 100	> 100	> 100	–	–	–	–	–	–	–	–	–	–
NCCCNCCS	> 100	> 100	> 100	> 100	> 100	> 100	> 100	> 100	> 100	> 100	–	–	–	–	–	–	–	–	–	–
CCCC1(CC(=O)O)OCCc2c1[nH]c1ccccc21 (stereo not drawn)	> 100	> 100	> 100	> 100	> 100	> 100	> 100	> 100	> 100	> 100	–	–	–	–	–	–	–	–	–	–
CCCCCCCCn1ccc2cc(NC(=O)Cn3cc(CN4CCCCCC4)nn3)ccc21	5.08	3.24	3.73	3.17	2.61	3.33	3.58	3.27	3.43	3.33	2.05	1.66	1.87	1.7	1.26	1.74	1.91	1.73	1.68	1.75
[N-]=[N+]=NCCCn1c2c(c3ccc([N+](=O)[O-])cc3c1=O)C(=O)c1ccccc1-2	> 100	78.2	0.061	> 100	> 100	> 100	56.8	> 100	> 100	> 100	–	0.0923	–	8.66	45.1	4.82	0.244	> 100	> 100	> 100
O=C1C(=O)c2ccccc2C(O)=C1C(C1=C(O)c2ccccc2C(=O)C1=O)c1ccc(Cl)cc1	19.3	18.4	30.1	7.78	44.1	13.8	17	25	32.1	33.5	–	–	–	–	–	–	–	–	–	–
CC/C=C\C[C@H]1CC=C2C(=O)C=C[C@@H]2CC=CCCCC(=O)O[C@@H](CCCCC)CC=C2C(=O)C=C[C@@H]2CC=CCCCC(=O)O[C@@H](CCCCC)CC=C2C(=O)C=C[C@@H]2CC=CCCCC(=O)O[C@@H](CCCCC)CC=C2C(=O)C=C[C@@H]2CC=CCCCC(=O)O1	> 7.9	2.87	> 7.9	2.47	4.32	6.32	> 7.9	> 7.9	> 7.9	> 7.9	2.39	1.37	2.29	1.22	1.53	2.02	2.95	2.51	2.41	7.64
CCOc1cccc(/C=N/NC(=O)c2cccc(Nc3ccnc(C(F)(F)F)c3)c2)c1O	2.08	44.6	37	> 26.6	> 100	27.9	24	17.6	> 64.5	33.1	0.232	1.66	1.12	0.473	5.21	2.4	3.09	1.48	1.55	0.796
